{"source": "PubChem BioAssay AID434995", "about": "(Southern Research Specialized Biocontainment Screening …, 2010)", "key": {"[1]": {"test": "PhoP regulon inhibitors in S. Typhi, SAR follow-up, purified and synthesized compounds, round 3 (AID 434995)", "details": "S. Typhi PhoP-regulated promoter GFP reporter, 4 h"}, "[2]": {"tested_on": "S. Typhi PhoP-regulated promoter GFP reporter, 4 h", "test": "PhoP regulon inhibitors in S. Typhi, SAR follow-up, purified and synthesized compounds, round 3 (AID 434995)"}}, "note": "Activity calls are given as the source filed them. How the calls were made is not given here.", "data": [{"smiles": "N#Cc1ccccc1NC(=S)NCc1ccc(Cl)cc1", "values": [{"measurement": "inhibition", "setting": "[1]; at 150 µM (top of the series)", "value": "-27.4% (inactive)"}]}, {"smiles": "Cc1ccc(NC(=O)N2CCCN(Cc3ccccc3F)C2)cc1", "values": [{"measurement": "inhibition", "setting": "[1]; at 150 µM (top of the series)", "value": "-12.7% (inactive)"}]}, {"smiles": "O=C(Nc1cccc(C(F)(F)F)c1)N1CCCN(Cc2ccccc2F)C1", "values": [{"measurement": "inhibition", "setting": "[1]; at 150 µM (top of the series)", "value": "8.86% (inactive)"}]}, {"smiles": "O=C(Nc1ccc(I)cc1)N1CCCN(Cc2ccccc2F)C1", "values": [{"measurement": "IC50", "setting": "[2]", "value": 81.6, "unit": "µM"}]}, {"smiles": "N#Cc1ccc(NC(=S)NCc2ccc(Cl)cc2)cc1", "values": [{"measurement": "inhibition", "setting": "[1]; at 150 µM (top of the series)", "value": "-25.7% (inactive)"}]}, {"smiles": "COc1ccccc1CNC(=S)Nc1ccncc1", "values": [{"measurement": "inhibition", "setting": "[1]; at 150 µM (top of the series)", "value": "11.4% (inactive)"}]}, {"smiles": "O=C(Nc1ccc(Cl)cc1)N1CCCN(Cc2ccccc2Br)C1", "values": [{"measurement": "IC50", "setting": "[2]", "value": 116, "unit": "µM"}]}, {"smiles": "O=C(Nc1cccc(I)c1)N1CCCN(Cc2ccccc2F)C1", "values": [{"measurement": "inhibition", "setting": "[1]; at 150 µM (top of the series)", "value": "-16.5% (inactive)"}]}, {"smiles": "S=C(NCCc1ccc(Cl)cc1)Nc1ccncc1", "values": [{"measurement": "IC50", "setting": "[2]", "value": 20.7, "unit": "µM"}]}, {"smiles": "O=C(Nc1cccc(F)c1)N1CCCN(Cc2ccccc2F)C1", "values": [{"measurement": "inhibition", "setting": "[1]; at 150 µM (top of the series)", "value": "25.8% (inactive)"}]}, {"smiles": "O=C(Nc1ccc(Cl)cc1)N1CCCN(Cc2ccc(Br)cc2)C1", "values": [{"measurement": "inhibition", "setting": "[1]; at 75 µM (top of the series)", "value": "-28.5% (inactive)"}]}, {"smiles": "Cc1ccccc1CNC(=S)Nc1ccncc1", "values": [{"measurement": "inhibition", "setting": "[1]; at 150 µM (top of the series)", "value": "-37.8% (inactive)"}]}]}
